Test results from patent US8741944B2, “Anti-infective agents against intracellular pathogens” (priority 2007, dated 2014).
Read-outs that look alike come from different tables or passages of the source.

Columns and labels:
KM12 (Colon Cancer) = experiment: NCI DTP tumor cell line screen (SRB), KM12
Protocol: (§1) For a typical screening experiment, cells are inoculated into 96 well microtiter plates in 100 μL at plating densities ranging from 5,000 to 40,000 cells/well depending on the doubling time of individual cell lines. After cell inoculation, the microtiter plates are incubated at 37° C., 5% CO2, 95% air and 100% relative humidity for 24 h prior to addition of experimental drugs.
(§2) After 24 h, two plates of each cell line are fixed in situ with TCA, to represent a measurement of the cell population for each cell line at the time of drug addition (Tz). Experimental drugs are solubilized in dimethyl sulfoxide at 400-fold the desired final maximum test concentration and stored frozen prior to use. At the time of drug addition, an aliquot of frozen concentrate is thawed and diluted to twice the desired final maximum test concentration with complete medium containing 50 μg/ml gentamicin. Additional four, 10-fold or ½ log serial dilutions are made to provide a total of five drug concentrations plus control. Aliquots of 100 μl of these different drug dilutions are added to the appropriate microtiter wells already containing 100 μl of medium, resulting in the required final drug concentrations.
(§3) Following drug addition, the plates are incubated for an additional 48 h at 37° C., 5% CO2, 95% air, and 100% relative humidity. For adherent cells, the assay is terminated by the addition of cold TCA. Cells are fixed in situ by the gentle addition of 50 μl of cold 50% (w/v) TCA (final concentration, 10% TCA) and incubated for 60 minutes at 4° C. The supernatant is discarded, and the plates are washed five times with tap water and air dried. Sulforhodamine B (SRB) solution (1001) at 0.4% (w/v) in 1% acetic acid is added to each well, and plates are incubated for 10 minutes at room temperature. After staining, unbound dye is removed by washing five times with 1% acetic acid and the plates are air dried. Bound stain is subsequently solubilized with 10 mM trizma base, and the absorbance is read on an automated plate reader at a wavelength of 515 nm. For suspension cells, the methodology is the same except that the assay is terminated by fixing settled cells at the bottom of the wells by gently adding 50 μl of 80% TCA (final concentration, 16% TCA). Using the seven absorbance measurements [time zero, (Tz), control growth, (C), and test growth in the presence of drug at the five concentration levels (Ti)], the percentage growth is calculated at each of the drug concentrations levels. Percentage growth inhibition is calculated as: [(Ti−Tz)/(C−Tz)]×100 for concentrations for which Ti>/=Tz [(Ti−Tz)/Tz]×100 for concentrations for which Ti<Tz
(§4) Three dose response parameters are calculated for each experimental agent. […] The drug concentration resulting in total growth inhibition (TGI) is calculated from Ti=Tz. […] Values are calculated for each of these three parameters if the level of activity is reached; however, if the effect is not reached or is exceeded, the value for that parameter is expressed as greater or less than the maximum or minimum concentration tested.

PC-3 (Prostate Cancer) = experiment: NCI DTP tumor cell line screen (SRB), PC-3
Protocol: as §1, §2, §3, §4

TK-10 (Renal Cancer) = experiment: NCI DTP tumor cell line screen (SRB), TK-10
Protocol: as §1, §2, §3, §4

T-47D (Breast Cancer) = experiment: NCI DTP tumor cell line screen (SRB), T-47D
Protocol: as §1, §2, §3, §4

IGROV1 (Ovarian Cancer) = experiment: NCI DTP tumor cell line screen (SRB), IGROV1
Protocol: as §1, §2, §3, §4

HCT-116 (Colon Cancer) = experiment: NCI DTP tumor cell line screen (SRB), HCT-116
Protocol: as §1, §2, §3, §4

OVCAR-3 (Ovarian Cancer) = experiment: NCI DTP tumor cell line screen (SRB), OVCAR-3
Protocol: as §1, §2, §3, §4

OVCAR-5 (Ovarian Cancer) = experiment: NCI DTP tumor cell line screen (SRB), OVCAR-5
Protocol: as §1, §2, §3, §4

SK-OV-3 (Ovarian Cancer) = experiment: NCI DTP tumor cell line screen (SRB), SK-OV-3
Protocol: as §1, §2, §3, §4

CCRF-CEM (Leukemia) = experiment: NCI DTP tumor cell line screen (SRB), CCRF-CEM
Protocol: as §1, §2, §3, §4

[1] = test system: NCI-H460 (Non-Small Cell Lung Cancer)
Protocol: as §1, §2, §3, §4

MALME-3M (Melanoma) = experiment: NCI DTP tumor cell line screen (SRB), MALME-3M
Protocol: as §1, §2, §3, §4

RPMI-8226 (Leukemia) = experiment: NCI DTP tumor cell line screen (SRB), RPMI-8226
Protocol: as §1, §2, §3, §4

SK-MEL-28 (Melanoma) = experiment: NCI DTP tumor cell line screen (SRB), SK-MEL-28
Protocol: as §1, §2, §3, §4

[2] = test system: NCI/ADR-RES (Breast Cancer)
Protocol: as §1, §2, §3, §4

[3] = test system: sixty human tumor cell lines; experiment: NCI DTP sixty human tumor cell line screen (SRB), means over the panel

NCC(=O)Nc1ccc(-n2nc(C(F)(F)F)cc2-c2ccc3c(ccc4ccccc43)c2)cc1 [Compound 70, 2-Amino-N-{4-[5-(2-phenanthrenyl)-3-(trifluoromethyl)-1H-pyrazol-1-yl]-phenyl}-acetamide]
TGI (KM12 (Colon Cancer)): 2.67E−06
Mean Optical Densities (KM12 (Colon Cancer); Log10 Concentration −4.0): 0.264
Mean Optical Densities (KM12 (Colon Cancer); Log10 Concentration −5.0): 0.146
Percent Growth (KM12 (Colon Cancer); Log10 Concentration −5.0): −73%
Mean Optical Densities (KM12 (Colon Cancer); Log10 Concentration −6.0): 1.425
Percent Growth (KM12 (Colon Cancer); Log10 Concentration −6.0): 54%
Mean Optical Densities (KM12 (Colon Cancer); Log10 Concentration −7.0): 2.044
Percent Growth (KM12 (Colon Cancer); Log10 Concentration −7.0): 91%
Mean Optical Densities (KM12 (Colon Cancer); Log10 Concentration −8.0): 2.151
Percent Growth (KM12 (Colon Cancer); Log10 Concentration −8.0): 98%
TGI (PC-3 (Prostate Cancer)): 2.38E−06
Mean Optical Densities (PC-3 (Prostate Cancer); Log10 Concentration −4.0): 0.108
Mean Optical Densities (PC-3 (Prostate Cancer); Log10 Concentration −5.0): 0.055
Percent Growth (PC-3 (Prostate Cancer); Log10 Concentration −5.0): −77%
Mean Optical Densities (PC-3 (Prostate Cancer); Log10 Concentration −6.0): 0.593
Percent Growth (PC-3 (Prostate Cancer); Log10 Concentration −6.0): 47%
Mean Optical Densities (PC-3 (Prostate Cancer); Log10 Concentration −7.0): 0.763
Percent Growth (PC-3 (Prostate Cancer); Log10 Concentration −7.0): 69%
Mean Optical Densities (PC-3 (Prostate Cancer); Log10 Concentration −8.0): 0.910
Percent Growth (PC-3 (Prostate Cancer); Log10 Concentration −8.0): 89%
TGI (TK-10 (Renal Cancer)): 3.10E−06
Mean Optical Densities (TK-10 (Renal Cancer); Log10 Concentration −4.0): 0.200
Mean Optical Densities (TK-10 (Renal Cancer); Log10 Concentration −5.0): 0.138
Percent Growth (TK-10 (Renal Cancer); Log10 Concentration −5.0): −80%
Mean Optical Densities (TK-10 (Renal Cancer); Log10 Concentration −6.0): 1.304
Percent Growth (TK-10 (Renal Cancer); Log10 Concentration −6.0): 77%
Mean Optical Densities (TK-10 (Renal Cancer); Log10 Concentration −7.0): 1.492
Percent Growth (TK-10 (Renal Cancer); Log10 Concentration −7.0): 100%
Mean Optical Densities (TK-10 (Renal Cancer); Log10 Concentration −8.0): 1.512
Percent Growth (TK-10 (Renal Cancer); Log10 Concentration −8.0): 102%
TGI (T-47D (Breast Cancer)): 4.21E−06
Mean Optical Densities (T-47D (Breast Cancer); Log10 Concentration −4.0): 0.238
Mean Optical Densities (T-47D (Breast Cancer); Log10 Concentration −5.0): 0.205
Percent Growth (T-47D (Breast Cancer); Log10 Concentration −5.0): −52%
Mean Optical Densities (T-47D (Breast Cancer); Log10 Concentration −6.0): 0.935
Percent Growth (T-47D (Breast Cancer); Log10 Concentration −6.0): 86%
Mean Optical Densities (T-47D (Breast Cancer); Log10 Concentration −7.0): 1.071
Percent Growth (T-47D (Breast Cancer); Log10 Concentration −7.0): 109%
Mean Optical Densities (T-47D (Breast Cancer); Log10 Concentration −8.0): 0.921
Percent Growth (T-47D (Breast Cancer); Log10 Concentration −8.0): 84%
TGI (IGROV1 (Ovarian Cancer)): 3.97E−06
Mean Optical Densities (IGROV1 (Ovarian Cancer); Log10 Concentration −4.0): 0.302
Mean Optical Densities (IGROV1 (Ovarian Cancer); Log10 Concentration −5.0): 0.235
Percent Growth (IGROV1 (Ovarian Cancer); Log10 Concentration −5.0): −49%
Mean Optical Densities (IGROV1 (Ovarian Cancer); Log10 Concentration −6.0): 0.902
Percent Growth (IGROV1 (Ovarian Cancer); Log10 Concentration −6.0): 74%
Mean Optical Densities (IGROV1 (Ovarian Cancer); Log10 Concentration −7.0): 1.103
Percent Growth (IGROV1 (Ovarian Cancer); Log10 Concentration −7.0): 107%
Mean Optical Densities (IGROV1 (Ovarian Cancer); Log10 Concentration −8.0): 1.044
Percent Growth (IGROV1 (Ovarian Cancer); Log10 Concentration −8.0): 97%
Mean Optical Densities (HCT-116 (Colon Cancer); Log10 Concentration −4.0): 0.146
Mean Optical Densities (HCT-116 (Colon Cancer); Log10 Concentration −5.0): 0.104
Percent Growth (HCT-116 (Colon Cancer); Log10 Concentration −5.0): −9%
Mean Optical Densities (HCT-116 (Colon Cancer); Log10 Concentration −6.0): 0.452
Percent Growth (HCT-116 (Colon Cancer); Log10 Concentration −6.0): 57%
Mean Optical Densities (HCT-116 (Colon Cancer); Log10 Concentration −7.0): 0.665
Percent Growth (HCT-116 (Colon Cancer); Log10 Concentration −7.0): 93%
Mean Optical Densities (HCT-116 (Colon Cancer); Log10 Concentration −8.0): 0.751
Percent Growth (HCT-116 (Colon Cancer); Log10 Concentration −8.0): 107%
TGI (OVCAR-3 (Ovarian Cancer)): 3.32E−06
Mean Optical Densities (OVCAR-3 (Ovarian Cancer); Log10 Concentration −4.0): 0.301
Mean Optical Densities (OVCAR-3 (Ovarian Cancer); Log10 Concentration −5.0): 0.140
Percent Growth (OVCAR-3 (Ovarian Cancer); Log10 Concentration −5.0): −70%
Mean Optical Densities (OVCAR-3 (Ovarian Cancer); Log10 Concentration −6.0): 0.816
Percent Growth (OVCAR-3 (Ovarian Cancer); Log10 Concentration −6.0): 76%
Mean Optical Densities (OVCAR-3 (Ovarian Cancer); Log10 Concentration −7.0): 0.849
Percent Growth (OVCAR-3 (Ovarian Cancer); Log10 Concentration −7.0): 83%
Mean Optical Densities (OVCAR-3 (Ovarian Cancer); Log10 Concentration −8.0): 0.879
Percent Growth (OVCAR-3 (Ovarian Cancer); Log10 Concentration −8.0): 89%
TGI (OVCAR-5 (Ovarian Cancer)): 3.32E−06
Mean Optical Densities (OVCAR-5 (Ovarian Cancer); Log10 Concentration −4.0): 0.149
Mean Optical Densities (OVCAR-5 (Ovarian Cancer); Log10 Concentration −5.0): 0.087
Percent Growth (OVCAR-5 (Ovarian Cancer); Log10 Concentration −5.0): −83%
Mean Optical Densities (OVCAR-5 (Ovarian Cancer); Log10 Concentration −6.0): 1.412
Percent Growth (OVCAR-5 (Ovarian Cancer); Log10 Concentration −6.0): 90%
Mean Optical Densities (OVCAR-5 (Ovarian Cancer); Log10 Concentration −7.0): 1.540
Percent Growth (OVCAR-5 (Ovarian Cancer); Log10 Concentration −7.0): 103%
Mean Optical Densities (OVCAR-5 (Ovarian Cancer); Log10 Concentration −8.0): 1.480
Percent Growth (OVCAR-5 (Ovarian Cancer); Log10 Concentration −8.0): 97%
TGI (SK-OV-3 (Ovarian Cancer)): 2.96E−06
Mean Optical Densities (SK-OV-3 (Ovarian Cancer); Log10 Concentration −4.0): 0.302
Mean Optical Densities (SK-OV-3 (Ovarian Cancer); Log10 Concentration −5.0): 0.083
Percent Growth (SK-OV-3 (Ovarian Cancer); Log10 Concentration −5.0): −79%
Mean Optical Densities (SK-OV-3 (Ovarian Cancer); Log10 Concentration −6.0): 1.262
Percent Growth (SK-OV-3 (Ovarian Cancer); Log10 Concentration −6.0): 71%
Mean Optical Densities (SK-OV-3 (Ovarian Cancer); Log10 Concentration −7.0): 1.597
Percent Growth (SK-OV-3 (Ovarian Cancer); Log10 Concentration −7.0): 98%
Mean Optical Densities (SK-OV-3 (Ovarian Cancer); Log10 Concentration −8.0): 1.514
Percent Growth (SK-OV-3 (Ovarian Cancer); Log10 Concentration −8.0): 91%
TGI (CCRF-CEM (Leukemia)): 2.49E−06
Mean Optical Densities (CCRF-CEM (Leukemia); Log10 Concentration −4.0): 0.194
Mean Optical Densities (CCRF-CEM (Leukemia); Log10 Concentration −5.0): 0.168
Percent Growth (CCRF-CEM (Leukemia); Log10 Concentration −5.0): −43%
Mean Optical Densities (CCRF-CEM (Leukemia); Log10 Concentration −6.0): 0.523
Percent Growth (CCRF-CEM (Leukemia); Log10 Concentration −6.0): 28%
Mean Optical Densities (CCRF-CEM (Leukemia); Log10 Concentration −7.0): 0.946
Percent Growth (CCRF-CEM (Leukemia); Log10 Concentration −7.0): 81%
Percent Growth (CCRF-CEM (Leukemia); Log10 Concentration −8.0): 74%
TGI [1]: 2.64E−06
Mean Optical Densities ([1]; Log10 Concentration −4.0): 0.213
Mean Optical Densities ([1]; Log10 Concentration −5.0): 0.173
Mean Optical Densities ([1]; Log10 Concentration −6.0): 0.830
Percent Growth ([1]; Log10 Concentration −6.0): 34%
Mean Optical Densities ([1]; Log10 Concentration −7.0): 1.499
Percent Growth ([1]; Log10 Concentration −7.0): 77%
Mean Optical Densities ([1]; Log10 Concentration −8.0): 1.799
Percent Growth ([1]; Log10 Concentration −8.0): 97%
TGI (MALME-3M (Melanoma)): 3.67E−06
Mean Optical Densities (MALME-3M (Melanoma); Log10 Concentration −4.0): 0.290
Mean Optical Densities (MALME-3M (Melanoma); Log10 Concentration −5.0): 0.218
Mean Optical Densities (MALME-3M (Melanoma); Log10 Concentration −6.0): 1.102
Mean Optical Densities (MALME-3M (Melanoma); Log10 Concentration −7.0): 1.128
TGI (RPMI-8226 (Leukemia)): 2.84E−06
Mean Optical Densities (RPMI-8226 (Leukemia); Log10 Concentration −4.0): 0.229
Mean Optical Densities (RPMI-8226 (Leukemia); Log10 Concentration −5.0): 0.164
Percent Growth (RPMI-8226 (Leukemia); Log10 Concentration −5.0): −51%
Mean Optical Densities (RPMI-8226 (Leukemia); Log10 Concentration −6.0): 0.547
Percent Growth (RPMI-8226 (Leukemia); Log10 Concentration −6.0): 42%
Mean Optical Densities (RPMI-8226 (Leukemia); Log10 Concentration −7.0): 0.701
Percent Growth (RPMI-8226 (Leukemia); Log10 Concentration −7.0): 72%
Mean Optical Densities (RPMI-8226 (Leukemia); Log10 Concentration −8.0): 0.766
Percent Growth (RPMI-8226 (Leukemia); Log10 Concentration −8.0): 85%
TGI (SK-MEL-28 (Melanoma)): 2.64E−06
Mean Optical Densities (SK-MEL-28 (Melanoma); Log10 Concentration −4.0): 0.218
Mean Optical Densities (SK-MEL-28 (Melanoma); Log10 Concentration −5.0): 0.071
Percent Growth (SK-MEL-28 (Melanoma); Log10 Concentration −5.0): −87%
Mean Optical Densities (SK-MEL-28 (Melanoma); Log10 Concentration −6.0): 1.130
Percent Growth (SK-MEL-28 (Melanoma); Log10 Concentration −6.0): 63%
Mean Optical Densities (SK-MEL-28 (Melanoma); Log10 Concentration −7.0): 1.320
Percent Growth (SK-MEL-28 (Melanoma); Log10 Concentration −7.0): 83%
Mean Optical Densities (SK-MEL-28 (Melanoma); Log10 Concentration −8.0): 1.426
Percent Growth (SK-MEL-28 (Melanoma); Log10 Concentration −8.0): 94%
TGI [2]: 2.85E−06
Mean Optical Densities ([2]; Log10 Concentration −4.0): 0.212
Mean Optical Densities ([2]; Log10 Concentration −5.0): 0.229
Percent Growth ([2]; Log10 Concentration −5.0): −59%
Mean Optical Densities ([2]; Log10 Concentration −6.0): 1.217
Percent Growth ([2]; Log10 Concentration −6.0): 49%
Mean Optical Densities ([2]; Log10 Concentration −7.0): 1.878
Percent Growth ([2]; Log10 Concentration −7.0): 98%
Mean Optical Densities ([2]; Log10 Concentration −8.0): 1.883
Percent Growth ([2]; Log10 Concentration −8.0): 98%
concentration range completely suppressing cell growth in a diverse range of tumor cell lines [3]: 3 to 5 µM
GI50 ([3]; read-out: mean GI50 among the sixty cell lines, two-day treatment): 1200 nM
mean TGI among the sixty cell lines ([3]; two-day treatment): 3200 nM
